# Assay results: article PMC12440375 (Biochemistry, 2025)
# Read-outs that look alike come from different tables or passages of the source.
# T1: EmrE (Escherichia coli, UniProt P23895, K22A)
# T1 sequence (P23895 1-110 K22A): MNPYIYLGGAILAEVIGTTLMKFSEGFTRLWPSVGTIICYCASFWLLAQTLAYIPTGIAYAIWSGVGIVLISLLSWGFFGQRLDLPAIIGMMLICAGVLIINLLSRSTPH
# T2: EmrE (Escherichia coli, UniProt P23895)
# T2 sequence (P23895 1-110): T1 sequence (P23895 1-110 K22A)
# T3: EmrE (Escherichia coli, UniProt P23895, K22R)
# T3 sequence (P23895 1-110 K22R): T1 sequence (P23895 1-110 K22A)
# B1: Saposin A (natural protein)
# chain: SLPCDICKDVVTAAGDMLKDNATEEEILVYLEKTCDWLPKPNMSASCKEIVDSYLPVILDIIKGEMSRPGEVCSALNLCESLQ
# B2: EmrE (WT-EmrE), multidrug efflux pump from Escherichia coli (natural protein)
# chain: T1 sequence (P23895 1-110 K22A)
# Experiments:
# EmrE [1] = molecular target: T1, EmrE; experiment: TROSY-HSQC NMR; format: binding
# EmrE [2] = molecular target: T2, EmrE; experiment: fluorescence polarization; format: binding
# EmrE [3] = molecular target: T3, EmrE; experiment: fluorescence polarization; format: binding
# EmrE [4] = molecular target: T1, EmrE; experiment: fluorescence polarization; format: binding
# native MS [5] = molecular target: the molecule itself; experiment: native MS
# native MS [6] = molecular target: the molecule itself; experiment: native MS; remark: listed apart in the source
molecule,measurement,setting,value
c1ccc([P+](c2ccccc2)(c2ccccc2)c2ccccc2)cc1 [tetraphenylphosphonium bromide],TROSY-HSQC NMR,EmrE [1],a portion of the drug-free K22A-EmrE was saturated with the substrate tetraphenylphosphonium bromide (TPP+)
"CC1=CC(C)=[N+]2C1=C(c1ccc3c(c1)OCCOCCOCCOCCOCCO3)c1c(C)cc(C)n1[B-]2(F)F [benzo[18]crown-6 BODIPY, 10-(2,3,5,6,8,9,11,12,14,15-decahydrobenzo[b][1,4,7,10,13,16]Hexaoxacyclooctadecin-18-yl)-5,5-difluoro-1,3,7,9-tetramethyl-5H-4l4,5l4-dipyrrolo[1,2-c:2′,1′-f][1,3,2]diazaborinine]",Kd,EmrE [2],97.4 nM
same,Kd,EmrE [3],226 nM
same,Kd,EmrE [4],154 nM
B1,stoichiometry N,native MS [5],2
same,stoichiometry N,native MS [6],4
B2,stoichiometry N,native MS [5],2
